Measured values reported in patent publication US20190262343A1, “WOUND HEALING USING BRAF INHIBITORS” (THE REGENTS OF THE UNIVERSITY OF CALIFORNIA, priority 2016, published 2019).

System: Human epidermal adult keratinocytes (HEKa)
Test: Scratch assay of keratinocyte monolayer (cell proliferation and migration, automated microscope)
Assay type: cell-based
Details: 1.5 μM vemurafenib vs no vemurafenib, evident at 6, 8 and 12 hours
Description: Human epidermal adult keratinocytes (HEKa) were purchased from Invitrogen (Grand Island, N.Y.; C-005-5C). HEKa cells (25,000/well) were plated on 96-well ImageLock cell migration plates (Essen Bioscience, Ann Arbor, Mich.) and incubated overnight. Then, the cell monolayer was scratched with a 96-pin WoundMaker (Essen Bioscience), and the cells washed with PBS prior to adding cell medium. Cells were maintained in culture with a concentration of 1.5 μM of vemurafenib until complete scratch closure. Cell migration was monitored by a microscope gantry inside a cell incubator, which was connected to a networker external controller hard drive that gathered and processed image data (Incucyte, Essen Bioscience, Ann Arbor, Mich.). This allows an automated and non-invasive method of monitoring live cells in culture. […]
Human epithelial adult keratinocytes (HEKa) cultured as a monolayer in 96-well plates were subject to a scratch assay, where proliferating keratinocytes should regrow and cover the scratch. Replicate cultures with or without the BRAF inhibitor vemurafenib were placed in an incubator with an automated microscope analyzer and the number of nucleated cells in the original scratch was recorded over time. […]

CCCS(=O)(=O)Nc1ccc(F)c(C(=O)c2c[nH]c3ncc(-c4ccc(Cl)cc4)cc23)c1F [vemurafenib]
covering of the original scratch: statistically significant improvement in the covering of the original scratch
